Test results taken from PubChem BioAssay (NCI).
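Step 1: Grow cells in 96-well plates. Step 2: Expose to compound for 48 hours at 5 concentrations. Step 3: Interpolate endpoints linearly; if unreached, use highest concentration. Definition used: TGI = concentration required for complete inhibition of growth.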

Columns and labels:
Experiment in all cases: DTP human tumour cell line panel, 48 h
NCI-H460 lung = tested on: NCI-H460 lung
HCT-15 colon = tested on: HCT-15 colon
UACC-62 melanoma = tested on: UACC-62 melanoma
EKVX NSCLC = tested on: EKVX NSCLC
SN12C renal = tested on: SN12C renal
A498 renal = tested on: A498 renal
CAKI-1 renal = tested on: CAKI-1 renal
LOX IMVI melanoma = tested on: LOX IMVI melanoma
SF-295 CNS = tested on: SF-295 CNS
ACHN renal = tested on: ACHN renal
HOP-92 NSCLC = tested on: HOP-92 NSCLC
HCT-116 colon = tested on: HCT-116 colon
SK-MEL-5 melanoma = tested on: SK-MEL-5 melanoma
NCI-H522 lung = tested on: NCI-H522 lung
OVCAR-5 ovarian = tested on: OVCAR-5 ovarian
MALME-3M melanoma = tested on: MALME-3M melanoma
A549 NSCLC = tested on: A549 NSCLC
OVCAR-4 ovarian = tested on: OVCAR-4 ovarian
UO-31 renal = tested on: UO-31 renal
MDA-N = tested on: MDA-N
DU-145 prostate = tested on: DU-145 prostate
HCC-2998 colon = tested on: HCC-2998 colon
MDA-MB-435 = tested on: MDA-MB-435
CCRF-CEM leukemia = tested on: CCRF-CEM leukemia
SF-268 CNS = tested on: SF-268 CNS
SK-MEL-28 melanoma = tested on: SK-MEL-28 melanoma
HS 578T breast = tested on: HS 578T breast
M14 melanoma = tested on: M14 melanoma
SK-MEL-2 melanoma = tested on: SK-MEL-2 melanoma
OVCAR-8 ovarian = tested on: OVCAR-8 ovarian
SR leukemia = tested on: SR leukemia
RXF 393 renal = tested on: RXF 393 renal
BT-549 breast = tested on: BT-549 breast
786-0 renal = tested on: 786-0 renal
HOP-62 NSCLC = tested on: HOP-62 NSCLC
SW-620 colon = tested on: SW-620 colon
SNB-19 CNS = tested on: SNB-19 CNS
NCI/ADR-RES ovarian = tested on: NCI/ADR-RES ovarian
MDA-MB-231 breast = tested on: MDA-MB-231 breast
MOLT-4 leukemia = tested on: MOLT-4 leukemia
HT29 colon = tested on: HT29 colon
MCF7 breast = tested on: MCF7 breast
UACC-257 melanoma = tested on: UACC-257 melanoma
T-47D breast = tested on: T-47D breast
NCI-H226 lung = tested on: NCI-H226 lung
U251 CNS = tested on: U251 CNS
TK-10 renal = tested on: TK-10 renal
OVCAR-3 ovarian = tested on: OVCAR-3 ovarian
COLO 205 colon = tested on: COLO 205 colon
NCI-H23 lung = tested on: NCI-H23 lung
SK-OV-3 ovarian = tested on: SK-OV-3 ovarian
IGROV1 ovarian = tested on: IGROV1 ovarian
KM12 colon = tested on: KM12 colon
SNB-75 CNS = tested on: SNB-75 CNS
RPMI-8226 leukemia = tested on: RPMI-8226 leukemia
PC-3 prostate = tested on: PC-3 prostate
K-562 leukemia = tested on: K-562 leukemia
SF-539 CNS = tested on: SF-539 CNS
HL-60(TB) leukemia = tested on: HL-60(TB) leukemia

Measured: TGI

O=C1C(c2c(O)[nH]c3ccc([N+](=O)[O-])cc23)=Nc2ccccc21
91.2 µM: MDA-MB-231 breast
49.8 µM: U251 CNS
34.2 µM: SNB-75 CNS
42.2 µM: RXF 393 renal
70.9 µM: TK-10 renal
not listed: SF-539 CNS | HL-60(TB) leukemia
> 100 µM: all other assays above

CC(C)OC(=O)[C@@H]1OC(C)(C)O[C@H]1C(=O)OC(C)C
not listed: SK-MEL-28 melanoma | M14 melanoma | OVCAR-3 ovarian | HL-60(TB) leukemia
> 100 µM: all other assays above

Cc1cc2nc(C#N)c(N3CCN(c4ccc([N+](=O)[O-])cc4)CC3)nc2cc1C
> 92.9 µM: 786-0 renal
95.5 µM: HS 578T breast
81.2 µM: SF-539 CNS
not listed: MOLT-4 leukemia | HL-60(TB) leukemia
> 100 µM: all other assays above

C/C=C(\C)[C@@H](O)C(=O)O[C@@H]1CC(C(C)(C)O)[C@](C)(CCC(=O)OC)[C@H]2[C@H](OC(=O)[C@H](O)[C@H](C)CC)C[C@]3(C)C(=CC[C@H]3[C@H]3CO[C@H](C=C(C)C)C3)[C@]12C (some centres not stated)
52.5 µM: MDA-MB-435
33.4 µM: U251 CNS
> 100 µM: SF-295 CNS | HOP-62 NSCLC | IGROV1 ovarian
29.7 µM: HCC-2998 colon
30.5 µM: NCI/ADR-RES ovarian
31.4 µM: LOX IMVI melanoma
41 µM: HS 578T breast
33.9 µM: OVCAR-8 ovarian
87.2 µM: CAKI-1 renal
34.1 µM: ACHN renal
38.3 µM: RPMI-8226 leukemia
32.9 µM: RXF 393 renal
37.7 µM: NCI-H23 lung
34.5 µM: HT29 colon
49.9 µM: UACC-257 melanoma
98.5 µM: DU-145 prostate
42.1 µM: MCF7 breast
37.6 µM: SNB-75 CNS
48.2 µM: MOLT-4 leukemia
32.4 µM: SK-MEL-2 melanoma
29.8 µM: EKVX NSCLC
33.2 µM: SK-MEL-5 melanoma
41.8 µM: OVCAR-4 ovarian
71.7 µM: HOP-92 NSCLC
44.2 µM: OVCAR-3 ovarian
32.8 µM: M14 melanoma
58 µM: SW-620 colon
40.6 µM: HL-60(TB) leukemia
42.4 µM: K-562 leukemia
40.2 µM: SR leukemia
38.4 µM: MDA-MB-231 breast
33.5 µM: UO-31 renal
38.6 µM: NCI-H460 lung
61.7 µM: A549 NSCLC | TK-10 renal
35.4 µM: MDA-N
31.9 µM: HCT-116 colon
37.4 µM: HCT-15 colon
65.3 µM: KM12 colon
50.9 µM: NCI-H226 lung
60.2 µM: A498 renal
87.1 µM: T-47D breast
40.3 µM: SK-MEL-28 melanoma
43.2 µM: OVCAR-5 ovarian
35.8 µM: SF-539 CNS
36.8 µM: SF-268 CNS
34.9 µM: PC-3 prostate
32.7 µM: BT-549 breast
29.5 µM: NCI-H522 lung | 786-0 renal

C/C(=C\COc1cc(O)c2c(c1)C(=O)c1cc(C)cc(O)c1C2=O)CCC1OC1(C)C (configuration not stated)
96.5 µM: CAKI-1 renal
70.8 µM: RXF 393 renal
not listed: SW-620 colon | NCI-H226 lung | HL-60(TB) leukemia
> 100 µM: all other assays above
